Results from US20080096894A1, “Anti-Bacterial Compounds” (ASTON UNIVERSITY, priority 2005, published 2008).

Key:
[1] = tested on: C. difficile (NCTC 11204 and thirty-two clinical isolates); assay: Minimum Inhibitory Concentration (MIC) against C. difficile, microtiter plate, anaerobic, 48 hours; format: cell-based, Clostridium difficile
Method: (§1) Compounds 4PYcq and 4PYOfi were screened against one NCTC strain and thirty-two clinical isolates of Clostridium difficile as described below.
(§2) The antimicrobial compounds were prepared by adding 5.12 mg of each compound to 1 ml of DMSO. From each solution 100 μl was then aseptically transferred into 1 ml of sterile distilled water to give a concentration of 512 μg/ml. 100 μl of each diluted compound was then added to the first well of a sterile 96-well microliter plate. Serial dilutions were performed to give a concentration range spanning from 0 to 512 μg/ml of each compound. The microtiter plate containing the antimicrobials was left to equilibrate in an anaerobic cabinet for 3 hours before the addition of C. difficile cells. An overnight culture of C. difficile (NCTC 11204) was standardized to an OD^600 of 0.04 (approximately 10^6 CFU/ml), using Wilkins Chalgren broth and was vortexed for 60 seconds to ensure there was a uniform suspension. 100 μl of standardized culture was then added to each well of the microtiter plate, containing the equilibrated antimicrobials. The final concentrations of the antimicrobials in the wells therefore ranged from […] and the concentration of the culture was 10^5 CFU/ml in each well. The microtiter plate was incubated at 37° C., for 48 hours under anaerobic conditions. The MIC was determined as the lowest concentration of antimicrobial agent inhibiting the total growth of C. difficile cells. After incubation, the total solution from each well was aseptically spread onto a separate Wilkins chalgren agar plate. Plates were incubated for 48 hours, at 37° C., under anaerobic conditions. The number of colonies on each plate was counted after incubation and the MBC was determined as the lowest concentration of the antimicrobial agent at which 99.9% of organisms in the original inoculum were killed.

[2] = tested on: Propionibacterium acnes; assay: MIC against Propionibacterium acnes, microtitre double dilution in BHI; format: cell-based
Method: Compounds 4PYcq and 4PYOfi were screened against one NCTC stain and seven clinical isolates of Propionibacterium acnes as described below.
Bacterial strains of Propionibacterium acnes, stored on beads at −20° C., were plated onto Brain heart infusion (BHI) agar plates. The cultures were incubated anaerobically for 4 days at 37° C.
Bacterial suspensions were prepared by diluting bacterial suspensions with BHI to obtain bacterial concentrations approximately 2×10^6 cfu/ml.
The test antimicrobial compounds were prepared by diluting the compound with appropriate nutrient broth to obtain correct stock solution. 50 μl of BHI were aliquoted onto the wells of the round-bottomed microtitre plate. 50 μl of the antimicrobial compounds were added onto the wells in the first column of the plate and several serial double dilutions were performed along the wells on each row. Following the series of double dilutions of the test compound the bacterial suspension were added onto each well except on the last column which served as a negative control. The lowest concentration of the test compound which inhibited bacterial growth was regarded as MIC of the compound.

[3] = tested on: C. difficile (NCTC 11204 and thirty-two clinical isolates); assay: Minimum Bactericidal Concentration (MBC) against C. difficile, 99.9% kill; format: cell-based, Clostridium difficile
Method: as §1, §2

[4] = tested on: Acinetobater spp.; assay: activity against Acinetobacter spp.; format: cell-based; settings: Gram-negative bacterium
[5] = Clostridium difficile Isolate 1
[6] = Clostridium difficile Isolate 2
[7] = Clostridium difficile Isolate 3
[8] = Clostridium difficile Isolate 4
[9] = Clostridium difficile Isolate 5
[10] = Clostridium difficile Isolate 6
[11] = Clostridium difficile Isolate 7
[12] = Clostridium difficile Isolate 8
[13] = Clostridium difficile Isolate 9
[14] = Clostridium difficile Isolate 10
[15] = Clostridium difficile Isolate 11
[16] = Clostridium difficile Isolate 12
[17] = Clostridium difficile Isolate 13
[18] = Clostridium difficile Isolate 14
[19] = Clostridium difficile Isolate 15
[20] = Clostridium difficile Isolate 16
[21] = Clostridium difficile Isolate 17
[22] = Clostridium difficile Isolate 18
[23] = Clostridium difficile Isolate 19
[24] = Clostridium difficile Isolate 20
[25] = Clostridium difficile Isolate 21
[26] = Clostridium difficile Isolate 22
[27] = Clostridium difficile Isolate 23
[28] = Clostridium difficile Isolate 24
[29] = Clostridium difficile Isolate 25
[30] = Clostridium difficile Isolate 26
[31] = Clostridium difficile Isolate 27
[32] = Clostridium difficile Isolate 28
[33] = Clostridium difficile Isolate 29
[34] = Clostridium difficile Isolate 30
[35] = Clostridium difficile Isolate 31
[36] = Clostridium difficile Isolate 32
[37] = Clostridium difficile NCTC 11204

NC(=NN=Cc1ccc([N+](=O)[O-])o1)c1cc[n+]([O-])cc1 (mixture of isomers) [Compound 4PYOfi]
128 to 256 µg/mL: MIC [1, 13] | MBC [3, 13] | MBC [3, 17]
1 to 2 µg/mL: MIC [1, 21] | MIC [1, 22] | MBC [3, 22]
inactive: activity against Acinetobater spp. (in words) [4]
32 to 64 µg/mL: MIC [1, 11] | MIC [1, 14] | MBC [3, 5] | MBC [3, 11] | MBC [3, 14]
4 to 8 µg/mL: MIC [1, 6] | MIC [1, 26] | MIC [1, 28] | MIC [1, 33] | MIC [1, 35] | MIC [1, 36] | MBC [3, 15] | MBC [3, 16] | MBC [3, 18] | MBC [3, 20] | MBC [3, 24] | MBC [3, 26] | MBC [3, 28]
8 to 16 µg/mL: MIC [1, 7] | MIC [1, 23] | MIC ([2]; P. acnes Isolate 1) | MIC ([2]; P. acnes Isolate 2) | MIC ([2]; P. acnes Isolate 3) | MIC ([2]; P. acnes Isolate 4) | MIC ([2]; P. acnes Isolate 6) | MIC ([2]; P. acnes Isolate 7) | MBC [3, 7] | MBC [3, 12] | MBC [3, 19] | MBC [3, 29] | MBC [3, 33] | MBC [3, 35] | MBC [3, 36]
16 to 32 µg/mL: MIC [1, 5] | MIC [1, 10] | MIC [1, 25] | MIC [1, 31] | MIC [1, 32] | MIC [1, 34] | MIC ([2]; P. acnes Isolate 5) | MIC ([2]; P. acnes NCTC 737) | MBC [3, 6] | MBC [3, 10] | MBC [3, 23] | MBC [3, 25] | MBC [3, 31] | MBC [3, 32] | MBC [3, 34]
2 to 4 µg/mL: MIC [1, 9] | MIC [1, 12] | MIC [1, 15] | MIC [1, 16] | MIC [1, 18] | MIC [1, 19] | MIC [1, 20] | MIC [1, 24] | MIC [1, 27] | MIC [1, 29] | MIC [1, 30] | MIC [1, 37] | MBC [3, 9] | MBC [3, 21] | MBC [3, 27] | MBC [3, 30] | MBC [3, 37]
64 to 128 µg/mL: MIC [1, 8] | MIC [1, 17] | MBC [3, 8]
